Measurements published in patent US12202835B2, “Substituted aromatic ring-linked dioxinoquinazolines and dioxinoquinolines as kinase inhibitors” (BEIJING SCITECH-MQ PHARMACEUTICALS LIMITED, priority 2018, dated 2025).

Experiments:
EBC1 cells = assay: Assay for inhibiting the proliferation of EBC1 cells (CCK-8); type: cell-based; settings: Homo sapiens, EBC-1
In short: (§1)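 Cells seeded in 96-well plates overnight, then exposed 72 h to 9 three-fold dilutions of compound (0.25% DMSO final). Viability by CCK-8 (1-2 h at 37° C., OD 450 nm), survival normalized to untreated and cell-free blanks; IC50 by curve fitting.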

c-MET kinase = c-MET kinase (Homo sapiens (Human), UniProt P08581); assay: Assay of small molecular compounds for inhibiting the activity of c-MET kinase (LANCE TR-FRET); type: biochemical; settings: read-out: CMET IC50
c-MET kinase, sequence (P08581 25-1390): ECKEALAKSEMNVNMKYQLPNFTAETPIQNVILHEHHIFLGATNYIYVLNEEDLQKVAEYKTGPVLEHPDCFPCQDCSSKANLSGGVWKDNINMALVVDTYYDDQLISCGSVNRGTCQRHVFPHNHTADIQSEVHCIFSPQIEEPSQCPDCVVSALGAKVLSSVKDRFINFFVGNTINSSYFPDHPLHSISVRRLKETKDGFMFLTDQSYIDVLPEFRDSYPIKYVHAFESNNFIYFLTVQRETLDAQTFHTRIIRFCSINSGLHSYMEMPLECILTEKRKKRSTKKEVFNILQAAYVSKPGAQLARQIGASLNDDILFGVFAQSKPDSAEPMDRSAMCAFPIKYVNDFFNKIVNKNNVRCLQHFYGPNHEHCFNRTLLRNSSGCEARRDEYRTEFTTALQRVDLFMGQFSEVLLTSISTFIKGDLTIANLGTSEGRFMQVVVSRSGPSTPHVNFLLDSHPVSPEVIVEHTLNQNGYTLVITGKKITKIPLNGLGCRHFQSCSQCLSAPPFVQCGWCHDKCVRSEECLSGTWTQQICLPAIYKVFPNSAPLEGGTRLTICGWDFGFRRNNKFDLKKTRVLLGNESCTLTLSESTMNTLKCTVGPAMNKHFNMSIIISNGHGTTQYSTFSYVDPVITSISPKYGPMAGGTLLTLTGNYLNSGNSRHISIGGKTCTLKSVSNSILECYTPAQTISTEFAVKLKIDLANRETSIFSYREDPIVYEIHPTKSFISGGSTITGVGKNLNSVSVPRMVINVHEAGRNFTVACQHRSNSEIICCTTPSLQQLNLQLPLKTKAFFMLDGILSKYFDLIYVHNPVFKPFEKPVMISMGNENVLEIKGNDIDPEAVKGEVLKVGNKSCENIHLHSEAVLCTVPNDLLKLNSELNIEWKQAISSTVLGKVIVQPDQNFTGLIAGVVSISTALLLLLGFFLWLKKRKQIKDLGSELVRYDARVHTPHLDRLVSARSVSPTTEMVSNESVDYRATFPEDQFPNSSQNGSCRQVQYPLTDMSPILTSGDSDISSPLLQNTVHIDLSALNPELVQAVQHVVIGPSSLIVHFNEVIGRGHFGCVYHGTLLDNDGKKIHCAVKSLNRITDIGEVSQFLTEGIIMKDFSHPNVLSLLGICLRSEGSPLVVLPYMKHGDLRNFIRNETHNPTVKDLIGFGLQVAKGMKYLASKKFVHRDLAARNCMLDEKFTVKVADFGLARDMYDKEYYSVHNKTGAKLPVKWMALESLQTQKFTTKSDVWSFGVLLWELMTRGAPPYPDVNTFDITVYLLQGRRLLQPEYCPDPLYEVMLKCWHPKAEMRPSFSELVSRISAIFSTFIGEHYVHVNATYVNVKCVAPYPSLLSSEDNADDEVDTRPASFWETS
In short: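 LANCE TR-FRET assay with c-MET at 1 nM final after a 5 min room-temperature preincubation with compound (11-point, 3-fold series, 2500–0.042 nM final, 4% DMSO). ULight-JAK-1 (Tyr1023) peptide (100 nM final) and ATP (10 μM final) reacted 60 min in the dark. Inhibition was taken relative to controls, then IC50 fitted.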

[1] = system: Ba/F3 LMNA-NTRK1-G595R cells; assay: Assay for inhibiting the proliferation of Ba/F3 LMNA-NTRK1-G595R cells (CCK-8); type: cell-based; settings: Mus musculus, BaF3
In short: as §1

MER kinase = MER kinase (Homo sapiens (Human), UniProt Q12866); assay: Assay of small molecular compounds for inhibiting the activity of MER kinase (LANCE TR-FRET); type: biochemical
MER kinase, sequence (Q12866 21-999): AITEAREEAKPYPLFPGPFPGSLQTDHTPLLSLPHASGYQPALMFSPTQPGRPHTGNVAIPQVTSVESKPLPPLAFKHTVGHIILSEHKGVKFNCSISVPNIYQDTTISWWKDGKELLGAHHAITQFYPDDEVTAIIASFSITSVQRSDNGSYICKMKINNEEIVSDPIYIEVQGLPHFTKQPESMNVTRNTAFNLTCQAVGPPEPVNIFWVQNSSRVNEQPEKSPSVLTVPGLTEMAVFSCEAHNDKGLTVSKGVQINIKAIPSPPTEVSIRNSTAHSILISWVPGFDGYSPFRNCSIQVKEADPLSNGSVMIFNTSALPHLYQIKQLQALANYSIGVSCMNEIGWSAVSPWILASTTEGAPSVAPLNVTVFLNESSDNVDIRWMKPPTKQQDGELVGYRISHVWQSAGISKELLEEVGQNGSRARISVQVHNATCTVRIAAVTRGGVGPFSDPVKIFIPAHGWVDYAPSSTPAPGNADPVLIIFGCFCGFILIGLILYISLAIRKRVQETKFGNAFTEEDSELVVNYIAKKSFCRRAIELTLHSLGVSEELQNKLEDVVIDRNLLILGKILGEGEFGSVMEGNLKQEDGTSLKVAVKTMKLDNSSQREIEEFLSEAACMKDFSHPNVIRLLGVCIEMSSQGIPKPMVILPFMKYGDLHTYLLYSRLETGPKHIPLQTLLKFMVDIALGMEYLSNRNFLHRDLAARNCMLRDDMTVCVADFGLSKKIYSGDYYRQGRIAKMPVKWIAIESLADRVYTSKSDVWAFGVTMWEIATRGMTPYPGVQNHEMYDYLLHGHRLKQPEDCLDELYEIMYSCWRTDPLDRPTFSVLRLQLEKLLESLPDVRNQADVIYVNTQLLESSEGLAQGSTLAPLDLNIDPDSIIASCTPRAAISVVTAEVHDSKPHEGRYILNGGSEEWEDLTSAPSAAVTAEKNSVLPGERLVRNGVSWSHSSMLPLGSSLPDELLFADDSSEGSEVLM
In short: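 MER kinase preincubated 5 min at RT with compound (11 points, 0.042-2500 nM final), then ULight-poly GT and ATP added (4× stocks 200 nM and 20 μM) for 60 min at RT, 1% DMSO. Phosphorylation detected by LANCE TR-FRET; IC50 from % inhibition versus controls.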

| Structure (SMILES) | IC50 (EBC1 cells) [nM] | IC50 (c-MET kinase) [nM] | IC50 [1] [nM] | IC50 (MER kinase) [nM] |
| --- | --- | --- | --- | --- |
| Cn1cc(C(=O)Nc2ccc(Oc3ccnc4cc(OCCCN5CCOCC5)c5c(c34)OCCO5)c(F)c2)c(=O)n(-c2ccc(F)cc2)c1=O [Example 15, N-(3-fluoro-4-((5-(3-morpholinopropoxy)-2,3-dihydro-[1,4]dioxino[2,3-f]quinolin-10-yl)oxy)phenyl)-3-(4-fluorophenyl)-1-methyl-2,4-dioxo-1,2,3,4-tetrahydropyrimidine-5-carboxamide] | ≤ 50 | ≤ 50 | 50 to 200 | ≤ 50 |
| CC(C)n1cc(C(=O)Nc2ccc(Oc3ccnc4cc(OCCCN5CCOCC5)c5c(c34)OCCO5)c(F)c2)c(=O)n(-c2ccc(F)cc2)c1=O [Example 16, N-(3-fluoro-4-((5-(3-morpholinopropoxy)-2,3-dihydro-[1,4]dioxino[2,3-f]quinolin-10-yl)oxy)phenyl)-3-(4-fluorophenyl)-1-isopropyl-2,4-dioxo-1,2,3,4-tetrahydropyrimidine-5-carboxamide] | – | ≤ 50 | 200 to 1000 | ≤ 50 |
| COc1cc2ncnc(Oc3ccc(NC(=O)c4cn(C)c(=O)n(-c5ccc(F)cc5)c4=O)cc3F)c2c2c1OCCO2 [Example 29, N-(3-fluoro-4-((5-methoxy-2,3-dihydro-[1,4]dioxino[2,3-f]quinazolin-10-yl)oxy)phenyl)-3-(4-fluorophenyl)-1-methyl-2,4-dioxo-1,2,3,4-tetrahydropyrimidine-5-carboxamide] | – | ≤ 50 | 200 to 1000 | ≤ 50 |
| Cn1cc(C(=O)Nc2ccc(Oc3ncnc4cc(OCCCN5CCOCC5)c5c(c34)OCCO5)c(F)c2)c(=O)n(-c2ccc(F)cc2)c1=O [Example 30, N-(3-fluoro-4-((5-(3-morpholinopropoxy)-2,3-dihydro-[1,4]dioxino[2,3-f]quinazolin-10-yl)oxy)phenyl)-3-(4-fluorophenyl)-1-methyl-2,4-dioxo-1,2,3,4-tetrahydropyrimidine-5-carboxamide] | – | ≤ 50 | 200 to 1000 | ≤ 50 |
| CCn1cc(C(=O)Nc2ccc(Oc3ccnc4cc(OC)c5c(c34)OCCO5)c(F)c2)c(=O)n(-c2ccc(F)cc2)c1=O [Example 37, N-(3-fluoro-4-((5-methoxy-2,3-dihydro-[1,4]dioxino[2,3-f]quinolin-10-yl)oxy)phenyl)-3-(4-fluorophenyl)-1-ethyl-2,4-dioxo-1,2,3,4-tetrahydropyrimidine-5-carboxamide] | – | ≤ 50 | 50 to 200 | ≤ 50 |
| CCn1cc(C(=O)Nc2ccc(Oc3ccnc4cc(OCCCN5CCOCC5)c5c(c34)OCCO5)c(F)c2)c(=O)n(-c2ccc(F)cc2)c1=O [Example 38, N-(3-fluoro-4-((5-(3-morpholinopropoxy)-2,3-dihydro-[1,4]dioxino[2,3-f]quinolin-10-yl)oxy)phenyl)-3-(4-fluorophenyl)-1-ethyl-2,4-dioxo-1,2,3,4-tetrahydropyrimidine-5-carboxamide] | – | ≤ 50 | 200 to 1000 | ≤ 50 |
| CC(C)n1cc(C(=O)Nc2ccc(Oc3ccnc4cc(OCCCN(C)C5CCC5)c5c(c34)OCCO5)c(F)c2)c(=O)n(-c2ccc(F)cc2)c1=O [Example 96, N-(3-fluoro-4-((5-(3-((cyclobutyl)(methyl)amino)propoxy)-2,3-dihydro-[1,4]dioxino[2,3-f]quinolin-10-yl)oxy)phenyl)-3-(4-fluorophenyl)-1-isopropyl-2,4-dioxo-1,2,3,4-tetrahydropyrimidine-5-carboxamide] | – | ≤ 50 | 200 to 1000 | ≤ 50 |
| CC(C)n1cc(C(=O)Nc2ccc(Oc3ccnc4cc(OCCCN5CCOCC5)c5c(c34)OCCO5)c(Cl)c2)c(=O)n(-c2ccc(F)cc2)c1=O [Example 97, N-(3-chloro-4-((5-(3-morpholinopropoxy)-2,3-dihydro-[1,4]dioxino[2,3-f]quinolin-10-yl)oxy)phenyl)-3-(4-fluorophenyl)-1-isopropyl-2,4-dioxo-1,2,3,4-tetrahydropyrimidine-5-carboxamide] | – | 50 to 500 | 50 to 200 | ≤ 50 |
| Cn1cc(C(=O)Nc2ccc(Oc3ccnc4cc(OCCCN5CCOCC5)c5c(c34)OCCO5)cc2Cl)c(=O)n(-c2ccc(F)cc2)c1=O [Example 98, N-(2-chloro-4-((5-(3-morpholinopropoxy)-2,3-dihydro-[1,4]dioxino[2,3-f]quinolin-10-yl)oxy)phenyl)-3-(4-fluorophenyl)-1-methyl-2,4-dioxo-1,2,3,4-tetrahydropyrimidine-5-carboxamide] | – | 50 to 500 | 50 to 200 | ≤ 50 |
| CC(C)n1cc(C(=O)Nc2ccc(Oc3ccnc4cc(OCC(C)(C)O)c5c(c34)OCCO5)c(F)c2)c(=O)n(-c2ccc(F)cc2)c1=O [Example 122, N-(3-fluoro-4-((5-(2-hydroxy-2-methylpropoxy)-2,3-dihydro-[1,4]dioxino[2,3-f]quinolin-10-yl)oxy)phenyl)-3-(4-fluorophenyl)-1-isopropyl-2,4-dioxo-1,2,3,4-tetrahydropyrimidine-5-carboxamide] | – | ≤ 50 | 200 to 1000 | ≤ 50 |
| COc1cc2nccc(Oc3ccc(NC(=O)c4cn(C)c(=O)n(-c5ccc(F)cc5)c4=O)c(Cl)c3)c2c2c1OCCO2 [Example 125, N-(2-chloro-4-((5-methoxy-2,3-dihydro-[1,4]dioxino[2,3-f]quinolin-10-yl)oxy)phenyl)-3-(4-fluorophenyl)-1-methyl-2,4-dioxo-1,2,3,4-tetrahydropyrimidine-5-carboxamide] | – | 50 to 500 | ≤ 50 | 50 to 500 |
| CCOc1cc2nccc(Oc3ccc(NC(=O)c4cn(C)c(=O)n(-c5ccc(F)cc5)c4=O)c(Cl)c3)c2c2c1OCCO2 [Example 129, N-(2-chloro-4-((5-ethoxy-2,3-dihydro-[1,4]dioxino[2,3-f]quinolin-10-yl)oxy)phenyl)-3-(4-fluorophenyl)-1-methyl-2,4-dioxo-1,2,3,4-tetrahydropyrimidine-5-carboxamide] | – | ≤ 50 | ≤ 50 | ≤ 50 |
| Cn1cc(C(=O)Nc2ccc(Oc3ccnc4cc(OCCCN5CCCCC5)c5c(c34)OCCO5)cc2Cl)c(=O)n(-c2ccc(F)cc2)c1=O [Example 137, N-(2-chloro-4-((5-((3-piperidin-1-yl)propoxy)-2,3-dihydro-[1,4]dioxino[2,3-f]quinolin-10-yl)oxy)phenyl)-3-(4-fluorophenyl)-1-methyl-2,4-dioxo-1,2,3,4-tetrahydropyrimidine-5-carboxamide] | – | ≤ 50 | ≤ 50 | ≤ 50 |
| Cn1cc(C(=O)Nc2ccc(Oc3ccnc4cc(OCC(C)(C)O)c5c(c34)OCCO5)cc2Cl)c(=O)n(-c2ccc(F)cc2)c1=O [Example 141, N-(2-chloro-4-((5-(2-hydroxy-2-methylpropoxy)-2,3-dihydro-[1,4]dioxino[2,3-f]quinolin-10-yl)oxy)phenyl)-3-(4-fluorophenyl)-1-methyl-2,4-dioxo-1,2,3,4-tetrahydropyrimidine-5-carboxamide] | – | ≤ 50 | 50 to 200 | 50 to 500 |
| CCn1cc(C(=O)Nc2ccc(Oc3ccnc4cc(OCCOC)c5c(c34)OCCO5)cc2F)c(=O)n(-c2ccc(F)cc2)c1=O [Example 156, N-(2-fluoro-4-((5-(2-methoxyethoxy)-2,3-dihydro-[1,4]dioxino[2,3-f]quinolin-10-yl)oxy)phenyl)-3-(4-fluorophenyl)-1-ethyl-2,4-dioxo-1,2,3,4-tetrahydropyrimidine-5-carboxamide] | – | ≤ 50 | 50 to 200 | – |
| Cn1cc(C(=O)Nc2ccc(Oc3ccnc4ccc5c(c34)OCCO5)cc2F)c(=O)n(-c2ccc(F)cc2)c1=O [Example 162, N-(4-((2,3-dihydro-[1,4]dioxino[2,3-f]quinolin-10-yl)oxy)-2-fluorophenyl)-3-(4-fluorophenyl)-1-methyl-2,4-dioxo-1,2,3,4-tetrahydropyrimidine-5-carboxamide] | – | 500 to 5000 | 50 to 200 | 50 to 500 |
| COc1cc2nccc(Oc3cc(C)c(NC(=O)c4cn(C)c(=O)n(-c5ccc(F)cc5)c4=O)cc3F)c2c2c1OCCO2 [Example 177, N-(5-fluoro-4-((5-methoxy-2,3-dihydro-[1,4]dioxino[2,3-f]quinolin-10-yl)oxy)-2-methylphenyl)-3-(4-fluorophenyl)-1-methyl-2,4-dioxo-1,2,3,4-tetrahydropyrimidine-5-carboxamide] | – | ≤ 50 | ≤ 50 | ≤ 50 |
| COCCOc1cc2nccc(Oc3cc(C)c(NC(=O)c4cn(C)c(=O)n(-c5ccc(F)cc5)c4=O)cc3F)c2c2c1OCCO2 [Example 179, N-(5-fluoro-4-((5-(2-methoxyethoxy)-2,3-dihydro-[1,4]dioxino[2,3-f]quinolin-10-yl)oxy)-2-methylphenyl)-3-(4-fluorophenyl)-1-methyl-2,4-dioxo-1,2,3,4-tetrahydropyrimidine-5-carboxamide] | – | ≤ 50 | ≤ 50 | ≤ 50 |
| CCn1cc(C(=O)Nc2cc(F)c(Oc3ccnc4cc(OCCOC)c5c(c34)OCCO5)cc2C)c(=O)n(-c2ccc(F)cc2)c1=O [Example 180, N-(5-fluoro-4-((5-(2-methoxyethoxy)-2,3-dihydro-[1,4]dioxino[2,3-f]quinolin-10-yl)oxy)-2-methylphenyl)-3-(4-fluorophenyl)-1-ethyl-2,4-dioxo-1,2,3,4-tetrahydropyrimidine-5-carboxamide] | – | ≤ 50 | ≤ 50 | – |
